Laboratory results: patent US11913003B2, “Method for improving soybean transformation efficiency” (BEIJING DABEINONG BIOTECHNOLOGY CO., LTD., priority 2017, dated 2024)

System: soybean meristem blocks
Experiment: Agrobacterium-mediated soybean transformation (SULE selective marker) with screening by external (dropwise) application of tribenuron methyl; positive plants verified by TaqMan
Format: cell-based, Glycine max
Description: Screening of soybean meristem block: After the recovery period, the meristem block was transferred to 60 ml of a proliferation medium without a selective agent (tribenuron methyl) (B5 salt 3.1 g/L, B5 vitamin, MES 1 g/L, sucrose 30 g/L, 6-BAP 1 mg/L, agar 8 g/L, cephalosporin 150 mg/L, glutamic acid 100 mg/L, aspartic acid 100 mg/L, pH 5.6), so that the soybean meristem block grew rapidly, and the screening and culturing was carried out for 5-9 days, preferably 7 days, under the conditions of a temperature of 24° C. and a photoperiod (light/dark) of 16:8. After the above soybean meristem block was proliferated for 5-9 days, tribenuron methyl herbicide (95% tribenuron methyl wettable powder) was externally applied in concentration of 1, 3, 5 and 7 μg to per ml of the proliferation medium, respectively, in which the diluted tribenuron methyl herbicide solution was added to the proliferation medium to cause selective growth of the transformed cells, and the screening and culturing was carried out at a temperature of 24° C. and a photoperiod (light/dark) of 16:8 for 2 weeks.
Regeneration of plant from resistant soybean tissue block: The resistant tissue blocks after the above screening treatment with four concentrations of tribenuron methyl were separately taken out from the proliferation medium containing tribenuron methyl, the dead tissues and cotyledons attached thereto were removed, the resistant tissue blocks were transferred to (obliquely inserted into) a B5 differentiation medium without selective agent (tribenuron methyl) (B5 salt 3.1 g/L, B5 vitamin, MES 1 g/L, sucrose 30 g/L, ZT 1 mg/L, agar 8 g/L, cephalosporin 150 mg/L, glutamic acid 50 mg/L, aspartic acid 50 mg/L, gibberellin 1 mg/L, auxin 1 mg/L, pH 5.6), and cultured for differentiation at a temperature of 24° C. and a photoperiod (light/dark) of 16:8 for 14-20 days, preferably 18 days. After the differentiation and growth of the above screened four resistant soybean tissue blocks for 14-20 days, […] of tribenuron methyl herbicide (95% tribenuron methyl wettable powder) was externally applied to per ml of the B5 differentiation medium, in which the diluted solution of tribenuron methyl herbicide was added dropwise to the B5 differentiation medium by a pipette, and the screening and culturing was continued at a temperature of 24° C. and a photoperiod (light/dark) of 16:8 until the resistant tissue blocks (transformed cells) regenerated into plants or the regenerated plants could survive.
In the present example, in the screening step of the above soybean meristem blocks and the plant regenerating step of the resistant soybean tissue blocks, the tribenuron methyl herbicide (95% tribenuron methyl wettable powder) was applied to per ml of the proliferation medium or the B5 differentiation medium, and the concentration examples of the diluted tribenuron methyl herbicide solution added dropwise to the proliferation medium or the B5 differentiation medium were shown in Table 1. The proliferated soybean meristem blocks were screened for tolerance to tribenuron methyl herbicide, and the specific information of the 12 treatments was shown in Table 2, and the screening results for each treatment were shown in Table 3, in which each treatment was repeated for 3 times.
The seedlings differentiated from the above 12 treatments were transferred to a B5 rooting medium (B5 salt 3.1 g/L, B5 vitamin, MES 1 g/L, sucrose 30 g/L, agar 8 g/L, cephalosporin 150 mg/L, indole-3-butyric acid (IBA) 1 mg/L, pH 5.6), cultured at 25° C. to a height of about 10 cm, and moved to a greenhouse to grow until fructification. The transgenic plants could be obtained by culturing at 26° C. for 16 hours and then at 20° C. for 8 hours per day in a greenhouse. […]

[1] = Treatment 1: 1 μg/ml proliferation medium, 3 μg/ml B5 differentiation medium
[2] = Treatment 1: 1 μg/ml proliferation medium, 3 μg/ml B5 differentiation medium, 50 initially germinated soybeans
[3] = Treatment 2: 1 μg/ml proliferation medium, 5 μg/ml B5 differentiation medium
[4] = Treatment 2: 1 μg/ml proliferation medium, 5 μg/ml B5 differentiation medium, 55 initially germinated soybeans
[5] = Treatment 3: 1 μg/ml proliferation medium, 7 μg/ml B5 differentiation medium
[6] = Treatment 3: 1 μg/ml proliferation medium, 7 μg/ml B5 differentiation medium, 75 initially germinated soybeans
[7] = Treatment 4: 3 μg/ml proliferation medium, 3 μg/ml B5 differentiation medium
[8] = Treatment 4: 3 μg/ml proliferation medium, 3 μg/ml B5 differentiation medium, 55 initially germinated soybeans
[9] = Treatment 5: 3 μg/ml proliferation medium, 5 μg/ml B5 differentiation medium
[10] = Treatment 5: 3 μg/ml proliferation medium, 5 μg/ml B5 differentiation medium, 60 initially germinated soybeans
[11] = Treatment 6: 3 μg/ml proliferation medium, 7 μg/ml B5 differentiation medium, 45 initially germinated soybeans
[12] = Treatment 7: 5 μg/ml proliferation medium, 3 μg/ml B5 differentiation medium
[13] = Treatment 7: 5 μg/ml proliferation medium, 3 μg/ml B5 differentiation medium, 50 initially germinated soybeans
[14] = Treatment 8: 5 μg/ml proliferation medium, 5 μg/ml B5 differentiation medium
[15] = Treatment 8: 5 μg/ml proliferation medium, 5 μg/ml B5 differentiation medium, 70 initially germinated soybeans
[16] = Treatment 9: 5 μg/ml proliferation medium, 7 μg/ml B5 differentiation medium
[17] = Treatment 9: 5 μg/ml proliferation medium, 7 μg/ml B5 differentiation medium, 43 initially germinated soybeans
[18] = Treatment 10: 7 μg/ml proliferation medium, 3 μg/ml B5 differentiation medium
[19] = Treatment 10: 7 μg/ml proliferation medium, 3 μg/ml B5 differentiation medium, 80 initially germinated soybeans
[20] = Treatment 11: 7 μg/ml proliferation medium, 5 μg/ml B5 differentiation medium
[21] = Treatment 11: 7 μg/ml proliferation medium, 5 μg/ml B5 differentiation medium, 75 initially germinated soybeans
[22] = Treatment 12: 7 μg/ml proliferation medium, 7 μg/ml B5 differentiation medium
[23] = Treatment 12: 7 μg/ml proliferation medium, 7 μg/ml B5 differentiation medium, 80 initially germinated soybeans

In the case of COC(=O)c1ccccc1S(=O)(=O)NC(=O)N(C)c1nc(C)nc(OC)n1 [tribenuron methyl], the Positive plant rate [1] is reported as 22.2%, the Transformation efficiency [1] is reported as 12.0% and the “Number of positive plants” value [2] is reported as 6 plant. It also gave a Number of seedlings [2] of 27 plant, a Positive plant rate [3] of 25.0% and a Transformation efficiency [3] of 10.9%. The “Number of positive plants” value [4] was 6 plant, the Number of seedlings [4] was 24 plant and the Positive plant rate [5] was 50.0%. For the same molecule, the Transformation efficiency [5] was 6.7%, the “Number of positive plants” value [6] was 5 plant and the Number of seedlings [6] was 10 plant. The Positive plant rate [7] was 20.0%, the Transformation efficiency [7] was 9.1% and the “Number of positive plants” value [8] was 5 plant. The Number of seedlings [8] was 25 plant, the Positive plant rate [9] was 21.4% and the Transformation efficiency [9] was 10.0%. The “Number of positive plants” value [10] was 6 plant, the Number of seedlings [10] was 28 plant and the Positive plant rate (Treatment 6: 3 μg/ml proliferation medium, 7 μg/ml B5 differentiation medium) was 47.8%. For the same molecule, the “Number of positive plants” value [11] was 11 plant, the Number of seedlings [11] was 23 plant and the Positive plant rate [12] was 36.8%. For the same molecule, the Transformation efficiency [12] was 14.0%, the “Number of positive plants” value [13] was 7 plant and the Number of seedlings [13] was 19 plant. For the same molecule, the Positive plant rate [14] was 25.0%, the Transformation efficiency [14] was 5.7% and the “Number of positive plants” value [15] was 4 plant. The Number of seedlings [15] was 16 plant, the Positive plant rate [16] was 62.5% and the Transformation efficiency [16] was 11.6%. The “Number of positive plants” value [17] was 5 plant, the Number of seedlings [17] was 8 plant and the Positive plant rate [18] was 60.0%. For the same molecule, the Transformation efficiency [18] was 11.3%, the “Number of positive plants” value [19] was 9 plant and the Number of seedlings [19] was 15 plant. The Positive plant rate [20] was 77.7%, the Transformation efficiency [20] was 9.3% and the “Number of positive plants” value [21] was 7 plant. For the same molecule, the Number of seedlings [21] was 9 plant, the Positive plant rate [22] was 80.0% and the Transformation efficiency [22] was 5.0%. For the same molecule, the “Number of positive plants” value [23] was 4 plant and the Number of seedlings [23] was 5 plant.
